Results: paper PMC5619143 (Future Microbiology, 2017)

Test system: LdtMav2
Assay: nitrocefin hydrolysis, absorbance at […] nm, Michaelis-Menten fit
Type: biochemical, Mycobacterium avium
Details: pH 6.5, 25 °C

- Km: 75 µM
Structure (SMILES): O=C(Cc1cccs1)N[C@@H]1C(=O)N2C(C(=O)O)=C(/C=C/c3ccc([N+](=O)[O-])cc3[N+](=O)[O-])CS[C@H]12 [nitrocefin]
